Laboratory results taken from publication PMC4303524 (Organic & biomolecular chemistry, 2015).
Changes are numbered by the printed parent chain. pEC50: −log10 of the molar value. Read-outs that look alike come from different tables or passages of the source.

Key:
LasR W60F = molecular target: T1, LasR W60F (Pseudomonas aeruginosa, UniProt P25084, W60F); experiment: β-galactosidase reporter-gene assay, LasR activation; format: cell-based; settings: for effect of mutation on LasR activation (in words): ligand at 100 nM
T1 sequence (P25084 1-239 W60F): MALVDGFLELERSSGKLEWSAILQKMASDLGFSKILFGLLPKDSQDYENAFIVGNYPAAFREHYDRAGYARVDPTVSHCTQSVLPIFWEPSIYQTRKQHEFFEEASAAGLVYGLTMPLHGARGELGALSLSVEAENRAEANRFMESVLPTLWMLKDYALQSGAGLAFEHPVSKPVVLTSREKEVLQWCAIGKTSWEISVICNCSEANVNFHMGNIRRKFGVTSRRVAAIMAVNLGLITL

LasR T115V = molecular target: T2, LasR T115V (Pseudomonas aeruginosa, UniProt P25084, T115V); experiment: as above; format: cell-based
T2 sequence (P25084 1-239 T115V): T1 sequence (P25084 1-239 W60F) with F60W, T115V

LasR R61M = molecular target: T3, LasR R61M (Pseudomonas aeruginosa, UniProt P25084, R61M); experiment: as above; format: cell-based
T3 sequence (P25084 1-239 R61M): T1 sequence (P25084 1-239 W60F) with F60W, R61M

LasR S129A = molecular target: T4, LasR S129A (Pseudomonas aeruginosa, UniProt P25084, S129A); experiment: as above; format: cell-based
T4 sequence (P25084 1-239 S129A): T1 sequence (P25084 1-239 W60F) with F60W, S129A

LasR D73L = molecular target: T5, LasR D73L (Pseudomonas aeruginosa, UniProt P25084, D73L); experiment: as above; format: cell-based
T5 sequence (P25084 1-239 D73L): T1 sequence (P25084 1-239 W60F) with F60W, D73L

LasR Y56F = molecular target: T6, LasR Y56F (Pseudomonas aeruginosa, UniProt P25084, Y56F); experiment: as above; format: cell-based
T6 sequence (P25084 1-239 Y56F): T1 sequence (P25084 1-239 W60F) with Y56F, F60W

LasR Y93F = molecular target: T7, LasR Y93F (Pseudomonas aeruginosa, UniProt P25084, Y93F); experiment: as above; format: cell-based
T7 sequence (P25084 1-239 Y93F): T1 sequence (P25084 1-239 W60F) with F60W, Y93F

LasR T75V = molecular target: T8, LasR T75V (Pseudomonas aeruginosa, UniProt P25084, T75V); experiment: as above; format: cell-based
T8 sequence (P25084 1-239 T75V): T1 sequence (P25084 1-239 W60F) with F60W, T75V

LasR W88F = molecular target: T9, LasR W88F (Pseudomonas aeruginosa, UniProt P25084, W88F); experiment: as above; format: cell-based
T9 sequence (P25084 1-239 W88F): T1 sequence (P25084 1-239 W60F) with F60W, W88F

wild-type LasR [1] = molecular target: T10, wild-type LasR (Pseudomonas aeruginosa, UniProt P25084); settings: read-out: EC50 value in wild-type LasR; cited from earlier work
T10 sequence (P25084 1-239): T1 sequence (P25084 1-239 W60F) with F60W

wild-type LasR [2] = molecular target: T10, wild-type LasR; experiment: β-galactosidase reporter-gene assay, LasR activation; format: cell-based; settings: E. coli reporter, geometric mean of biological triplicates
[3] = E. coli reporter, geometric mean of biological triplicates

CCCCCCCCCCCC(=O)N[C@H]1CCSC1=O [Ligand 5]
effect of mutation on LasR activation (in words) (LasR W60F): significantly decreased LasR activation
effect of mutation on LasR activation (in words) (LasR T115V; ligand at 100 nM): destroyed LasR activation
effect of mutation on LasR activation (in words) (LasR R61M; ligand at 100 nM): no significant effect
effect of mutation on LasR activation (in words) (LasR S129A; ligand at 100 nM): significantly decreased LasR activation

CCCCCCCCCC(=O)CC(=O)NC1CCCC1 [Ligand 2]
effect of mutation on LasR activation (in words) (LasR T115V; ligand at 10 μM): significantly detrimental
effect of mutation on LasR activation (in words) (LasR R61M; ligand at 10 μM): significantly detrimental
effect of mutation on LasR activation (in words) (LasR S129A; ligand at 10 μM): significantly detrimental

CCCCCCCCCC(=O)CC(=O)N[C@H]1CCOC1=O [OdDHL, N-(3-oxo)-dodecanoyl L-homoserine lactone, reference compound]
maximal activation (% vs. wild-type) (LasR D73L; 10 μM OdDHL): 0%
EC50 (LasR D73L; E. coli reporter): inactive
maximal activation (% vs. wild-type) (LasR W60F; 10 μM OdDHL): 73%
maximal activation (% vs. wild-type) (LasR Y56F; 10 μM OdDHL): 102%
maximal activation (% vs. wild-type) (LasR Y93F; 10 μM OdDHL): 93%
maximal activation (% vs. wild-type) (LasR T75V; 10 μM OdDHL, mean of biological triplicates): 106%
maximal activation (% vs. wild-type) (LasR W88F; 10 μM OdDHL): 0%
EC50 (LasR W88F; E. coli reporter): inactive
maximal activation (% vs. wild-type) (LasR T115V; 100 μM OdDHL): 109%
maximal activation (% vs. wild-type) (LasR R61M; 10 μM OdDHL): 56%
maximal activation (% vs. wild-type) (LasR S129A; 10 μM OdDHL): 103%

CCCCCCCCCCCC(=O)N[C@H]1CCOC1=O [Ligand 4]
effect of mutation on LasR activation (in words) (LasR W60F): significantly decreased LasR activation
pEC50 (wild-type LasR [1]): 7.40
effect of mutation on LasR activation (in words) (LasR Y56F; ligand at 100 nM): small but significant impact
effect of mutation on LasR activation (in words) (LasR T115V; ligand at 100 nM): destroyed LasR activation
effect of mutation on LasR activation (in words) (LasR R61M; ligand at 100 nM): perhaps only a slight effect
effect of mutation on LasR activation (in words) (LasR S129A; ligand at 100 nM): significantly decreased LasR activation

CCCCCCCCCC(=O)CC(=O)NC1CCSC1=O (centres unmarked) [Ligand 1]
pEC50 (LasR W60F; [3]): 7.15
pEC50 (LasR Y56F; [3]): 8.30
pEC50 (LasR Y93F; [3]): 8.00
pEC50 (LasR T75V; [3]): 9.30
pEC50 (wild-type LasR [2]): 8.30
pEC50 (LasR T115V; [3]): 5.46
pEC50 (LasR R61M; [3]): 7.10
pEC50 (LasR S129A; [3]): 7.52

CCCCCCCCCC(=O)CC(=O)Nc1ccccc1 [Ligand 3]
activity in mutant LasR (activation, in words) (LasR W60F; ligand at 10 μM): moderate agonist
activity in mutant LasR (activation, in words) (LasR Y56F; ligand at 10 μM): moderate agonist
activity in mutant LasR (activation, in words) (LasR Y93F; ligand at 10 μM): flipped the activity of 3 into an agonist
